Test results from PubChem BioAssay (NCI).
Values joined by “and” are separate entries in the source; they are usually repeats but may differ in a detail not shown here. Equal entries are not always repeated.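 Assay format: 96-well plates, 48-hour exposure. GI50 is the concentration that inhibits growth by half. TGI: total growth inhibition.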

Tests used:
Test in all cases: DTP human tumour cell line panel, 48 h
SN12C renal = system: SN12C renal
RPMI-8226 leukemia = system: RPMI-8226 leukemia
HOP-92 NSCLC = system: HOP-92 NSCLC
HT29 colon = system: HT29 colon
HCT-116 colon = system: HCT-116 colon
TK-10 renal = system: TK-10 renal
OVCAR-5 ovarian = system: OVCAR-5 ovarian
SK-MEL-2 melanoma = system: SK-MEL-2 melanoma
MALME-3M melanoma = system: MALME-3M melanoma
IGROV1 ovarian = system: IGROV1 ovarian

## c1ccc2cc(-c3cc(-c4cc(-c5ccc6ccccc6c5)on4)no3)ccc2c1
SN12C renal
  TGI: > 100 µM
RPMI-8226 leukemia
  TGI: > 100 µM
HOP-92 NSCLC
  TGI: > 100 µM
HT29 colon
  TGI: > 100 µM
HCT-116 colon
  TGI: > 100 µM
TK-10 renal
  TGI: > 100 µM
OVCAR-5 ovarian
  TGI: > 100 µM
SK-MEL-2 melanoma
  TGI: > 100 µM
MALME-3M melanoma
  TGI: > 100 µM
IGROV1 ovarian
  TGI: > 100 µM

## COc1cc(-c2nn(-c3ccc(NC(=O)c4ccc(Cl)c(C(F)(F)F)c4)cc3)cc2-c2ccncc2)ccc1Cl
SN12C renal
  GI50: 4.64 µM
  TGI: > 100 µM
RPMI-8226 leukemia
  GI50: 1.79 µM
  TGI: 6.47 µM
HOP-92 NSCLC
  GI50: 2.58 µM
  TGI: 8.81 µM
HT29 colon
  GI50: 1.8 µM
  TGI: 4.25 µM
HCT-116 colon
  GI50: 2.81 µM
  TGI: > 58.2 µM
TK-10 renal
  GI50: 4.56 µM
  TGI: > 100 µM
OVCAR-5 ovarian
  GI50: 4.58 µM
  TGI: > 39.6 µM
SK-MEL-2 melanoma
  GI50: 3.12 µM
  TGI: > 28.5 µM
MALME-3M melanoma
  GI50: 1.46 µM
  TGI: 5.05 µM
IGROV1 ovarian
  GI50: 3.96 µM
  TGI: > 100 µM

## CN(C)CC[N+]1=Nc2cccc3cccc(c23)N1
SN12C renal
  TGI: > 100 µM
RPMI-8226 leukemia
  TGI: > 66.8 µM
HOP-92 NSCLC
  TGI: > 100 µM
HT29 colon
  TGI: > 100 µM
HCT-116 colon
  TGI: > 72.7 µM
TK-10 renal
  TGI: > 100 µM
OVCAR-5 ovarian
  TGI: > 100 µM
SK-MEL-2 melanoma
  TGI: > 100 µM
MALME-3M melanoma
  TGI: > 100 µM
IGROV1 ovarian
  TGI: > 100 µM

## O=C(CC1(O)C(=O)Nc2c(Cl)cc(Cl)cc21)c1ccc(Br)cc1Br (configuration not stated)
SN12C renal
  TGI: 28.5 µM
RPMI-8226 leukemia
  TGI: 21.6 µM
HOP-92 NSCLC
  TGI: 9.75 µM
HT29 colon
  TGI: 40.9 µM
HCT-116 colon
  TGI: 15.2 µM
TK-10 renal
  TGI: 32 µM
OVCAR-5 ovarian
  TGI: 31.9 µM
SK-MEL-2 melanoma
  TGI: 28.9 µM
MALME-3M melanoma
  TGI: 23.7 µM
IGROV1 ovarian
  TGI: 34.7 µM

## CCCCCN(CCCCC)CCCNc1c2c(nc3ccc(Cl)cc13)CCCC2
SN12C renal
  GI50: 2.92 µM
  TGI: 12.8 µM
RPMI-8226 leukemia
  GI50: 1.98 µM
  TGI: 4.54 µM
HOP-92 NSCLC
  GI50: 1.19 µM
  TGI: 5.63 µM
HT29 colon
  GI50: 0.501 µM
  TGI: 7.01 µM
HCT-116 colon
  GI50: 0.88 µM
  TGI: 2.9 µM
TK-10 renal
  GI50: 2.4 µM
  TGI: 7.24 µM
OVCAR-5 ovarian
  GI50: 3.36 µM
  TGI: 15 µM
SK-MEL-2 melanoma
  GI50: 2.05 µM
  TGI: 3.99 µM
MALME-3M melanoma
  GI50: 2.54 µM
  TGI: 6.01 µM
IGROV1 ovarian
  GI50: 1.49 µM
  TGI: 5.77 µM

## CO[C@H](C(=O)[C@@H](O)[C@@H](C)O)[C@@H]1Cc2cc3cc(O[C@H]4C[C@@H](O[C@H]5C[C@@H](O)[C@H](O)C(C)O5)[C@H](O)C(C)O4)c(C)c(O)c3c(O)c2C(=O)[C@H]1O[C@H]1C[C@@H](O[C@H]2C[C@@H](O[C@H]3C[C@](C)(O)C(=O)C(C)O3)[C@@H](O)C(C)O2)[C@H](O)C(C)O1 (some centres not stated)
SN12C renal
  GI50: 0.093 µM
  TGI: > 33.2 µM
RPMI-8226 leukemia
  GI50: 0.1 µM
  TGI: 1.61 µM
HOP-92 NSCLC
  GI50: 0.0852 µM
  TGI: 0.801 µM
HT29 colon
  GI50: 0.0852 µM
  TGI: 0.866 µM
HCT-116 colon
  GI50: 0.0444 µM
  TGI: > 15.7 µM
TK-10 renal
  GI50: 0.21 µM
  TGI: > 11.8 µM
OVCAR-5 ovarian
  GI50: 0.115 µM
  TGI: > 22.1 µM
SK-MEL-2 melanoma
  GI50: 0.059 µM
  TGI: 0.156 µM
MALME-3M melanoma
  GI50: 0.0388 µM
  TGI: 0.28 µM
IGROV1 ovarian
  GI50: 0.132 µM
  TGI: > 33.2 µM

## COC(=O)[C@@H]1[C@H](O)[C@H](C)[C@H](O)[C@@](C)(O)/C=C\C=C(C)C(=O)Nc2c(C)c(OC(C)=O)c3c(c2O)C(=O)C(C)=C2OCOC(=C23)C(C)=C[C@@](C)(O)[C@H](O)[C@@H](C)[C@H]1OC(C)=O
SN12C renal
  GI50: 49.8 µM
  TGI: > 100 µM and 66.9 µM
RPMI-8226 leukemia
  GI50: 24.1 µM
  TGI: > 100 µM and 66.9 µM and 96.5 µM
HOP-92 NSCLC
  TGI: > 100 µM
HT29 colon
  TGI: > 100 µM and 66.9 µM
HCT-116 colon
  GI50: 59.7 µM
  TGI: > 100 µM and 66.9 µM
TK-10 renal
  TGI: > 100 µM
OVCAR-5 ovarian
  TGI: > 100 µM
SK-MEL-2 melanoma
  TGI: > 100 µM and 66.9 µM and 96.3 µM
MALME-3M melanoma
  TGI: > 100 µM and 66.9 µM and 88.6 µM
IGROV1 ovarian
  TGI: > 100 µM and 66.9 µM

## COC1=CC(c2ccc[nH]2)=N/C1=C\c1[nH]c(C)c(C(=O)OC(C)C)c1C
SN12C renal
  GI50: 0.068 µM
  TGI: 2.01 µM
RPMI-8226 leukemia
  GI50: 0.223 µM
  TGI: 2.47 µM
HOP-92 NSCLC
  GI50: 0.0239 µM
  TGI: 0.0815 µM
HT29 colon
  GI50: 0.0236 µM
  TGI: 0.439 µM
HCT-116 colon
  GI50: 0.0274 µM
  TGI: 1.07 µM
TK-10 renal
  GI50: 0.0541 µM
  TGI: 2.49 µM
OVCAR-5 ovarian
  GI50: 0.144 µM
  TGI: 1.95 µM
SK-MEL-2 melanoma
  GI50: 0.02 µM
  TGI: 0.0525 µM
MALME-3M melanoma
  GI50: 0.456 µM
  TGI: 2.19 µM
IGROV1 ovarian
  GI50: 0.0535 µM
  TGI: 1.62 µM

## Cn1c2ccccc2c2c(Nc3ccccc3)c3ccccc3nc21
SN12C renal
  GI50: 16.5 µM
  TGI: 47.3 µM
RPMI-8226 leukemia
  GI50: 3.34 µM
  TGI: 30.5 µM
HOP-92 NSCLC
  GI50: 13.9 µM
  TGI: 56.5 µM
HT29 colon
  GI50: 5.66 µM
  TGI: 60.7 µM
HCT-116 colon
  GI50: 13.2 µM
  TGI: 36.1 µM
TK-10 renal
  GI50: 15.8 µM
  TGI: 43.8 µM
OVCAR-5 ovarian
  GI50: > 100 µM
  TGI: > 100 µM
SK-MEL-2 melanoma
  GI50: 80 µM
  TGI: > 100 µM
MALME-3M melanoma
  GI50: 15.4 µM
  TGI: 33.9 µM
IGROV1 ovarian
  GI50: 61.3 µM
  TGI: > 100 µM

## O=C1C(=O)N(c2ccc(Cl)cc2Cl)C(=O)C(=O)C1c1nc2ccccc2s1
SN12C renal
  TGI: > 100 µM
RPMI-8226 leukemia
  TGI: > 100 µM
HOP-92 NSCLC
  TGI: > 100 µM
HT29 colon
  TGI: > 100 µM
HCT-116 colon
  TGI: > 100 µM
TK-10 renal
  TGI: > 100 µM
OVCAR-5 ovarian
  TGI: > 100 µM
SK-MEL-2 melanoma
  TGI: > 100 µM
MALME-3M melanoma
  TGI: > 100 µM
IGROV1 ovarian
  TGI: > 100 µM

## COC1CCC(N2C(=O)CNc3ncc(-c4ccc(C(C)(C)O)nc4)nc32)CC1 (configuration not stated)
SN12C renal
  GI50: 0.794 µM and 0.315 µM
  TGI: > 43.2 µM
RPMI-8226 leukemia
  GI50: 0.376 µM and 0.0559 µM
  TGI: 2.95 µM and 3.97 µM
HOP-92 NSCLC
  GI50: 0.129 µM and 0.0247 µM
  TGI: 0.934 µM and 0.389 µM
HT29 colon
  GI50: 1.83 µM and 0.472 µM
  TGI: > 38.4 µM
HCT-116 colon
  GI50: 2.07 µM and 0.809 µM
  TGI: > 10 µM and 13.8 µM
TK-10 renal
  TGI: 5.58 µM and 1.86 µM
OVCAR-5 ovarian
  GI50: 0.918 µM and 0.273 µM
  TGI: > 44.8 µM
SK-MEL-2 melanoma
  GI50: 0.772 µM and 0.183 µM
  TGI: 3.69 µM and 1.48 µM
MALME-3M melanoma
  GI50: 0.228 µM and 0.0287 µM
  TGI: 2.8 µM and 0.352 µM
IGROV1 ovarian
  GI50: 0.315 µM and 0.0564 µM
  TGI: 2.8 µM and 1.64 µM

## NC(=O)c1cccc2cn(-c3ccc([C@@H]4CCCNC4)cc3)nc12
SN12C renal
  GI50: 9.15 µM
  TGI: 56.8 µM
RPMI-8226 leukemia
  GI50: 22.5 µM
  TGI: > 80.6 µM
HOP-92 NSCLC
  GI50: 21.5 µM
  TGI: 89.9 µM
HT29 colon
  GI50: 12.9 µM
  TGI: 32 µM
HCT-116 colon
  GI50: 10.8 µM
  TGI: 25.1 µM
TK-10 renal
  GI50: 24.1 µM
  TGI: 63.2 µM
OVCAR-5 ovarian
  GI50: 24 µM
  TGI: 64.8 µM
SK-MEL-2 melanoma
  GI50: 19.7 µM
  TGI: 39.3 µM
MALME-3M melanoma
  GI50: 15.2 µM
  TGI: 30.5 µM
IGROV1 ovarian
  GI50: 15.3 µM
  TGI: 52.3 µM

## C=C1C(=O)C23CC1CCC2C12CO[C@@H]4OCC(C)(CC[C@@H]1OC3=O)C42 (some centres not stated)
SN12C renal
  TGI: 21.3 µM
RPMI-8226 leukemia
  TGI: 19 µM
HOP-92 NSCLC
  TGI: 5.78 µM
HT29 colon
  TGI: 10.3 µM
HCT-116 colon
  TGI: 6.33 µM
TK-10 renal
  TGI: 13.8 µM
OVCAR-5 ovarian
  TGI: 29.2 µM
SK-MEL-2 melanoma
  TGI: 16.9 µM
MALME-3M melanoma
  TGI: 4.14 µM
IGROV1 ovarian
  TGI: 14.1 µM
